The subject of series [1] is T1, NDONCS3.
T1 construct: full-length single-domain polypeptide with signal peptide region retained; His-tagged (pET29b), E. coli, TALON purified
Put plainly: CD spectroscopy at […] nm, (S)-norcoclaurine formation. To be noted: pH 7.3, 37 °C, 50 mM phosphate. Format: biochemical, Nandina domestica.

In series [2] the test system is T2, CCHNCS2.
T2 construct: full-length natural tandem fusion of two NCS domains; His-tagged (pET29b), E. coli, TALON purified (purification section prints CCHNCS1)
Described as above. It is filed as biochemical, Corydalis cheilanthifolia. To be noted: saturating dopamine; pH 7.3, 37 °C, 50 mM phosphate; 4-HPAA kinetics sigmoidal, table gives Hill coefficient for dopamine.

Series [3] relates to O=CCc1ccc(O)cc1. Put plainly: purified protein. Format: biochemical, Thalictrum flavum. To be noted: saturating dopamine, pH 7.3, 37 °C, 50 mM phosphate, 4-HPAA kinetics sigmoidal, table gives Hill coefficient for dopamine.

Like-named read-outs stand apart in the source and are kept apart here.

A word on the kcat: it is the maximal rate divided by the concentration of active sites.

Take `O=CCc1ccc(O)cc1` [4-hydroxyphenylacetaldehyde]: the Km in series [1] (saturating dopamine, 4-HPAA kinetics sigmoidal, table gives Hill coefficient for dopamine, read-out: Km (μM) (4-HPAA)) is 480 ± 120 µM; in series [2] it was 1830 ± 697 µM.
Regarding `NCCc1ccc(O)c(O)c1` [dopamine], the Km in series [1] (saturating 4-HPAA, Hill fit by table (the source assigns sigmoidal kinetics to 4-HPAA), read-out: K’m (μM) (dopamine)) stood at 347 ± 35 µM.
Regarding TFLNCS2Δ25 (Thalictrum flavum), in series [3], the Km amounted to 494 ± 112 µM and the kcat worked out at 2.4 ± 0.2 s⁻¹.

Values taken from article PMC5171800, “Genes encoding norcoclaurine synthase occur as tandem fusions in the Papaveraceae” (Scientific Reports, 2016).
